Changes are numbered by the printed parent chain.
How the values were obtained:
Assay type in all cases: biochemical, bovine
Gal-T1(Y289L,C342T) = target: T1, Gal-T1(Y289L,C342T) (Bos taurus, UniProt P08037, C342T/Y289L); test: Glycosyltransfer to trimmed trastuzumab with Gal-T1(Y289L,C342T) expressed in CHO; conditions: trimmed trastuzumab 10 mg/mL; UDP derivative 5 mM; enzyme 2.0 mg/mL; pH 8.0, 30° C. overnight
T1 construct: host or cells: CHO K1
T1 sequence (P08037 74-402 V158I/P187L/I205M/L206V/Y289L/C342T): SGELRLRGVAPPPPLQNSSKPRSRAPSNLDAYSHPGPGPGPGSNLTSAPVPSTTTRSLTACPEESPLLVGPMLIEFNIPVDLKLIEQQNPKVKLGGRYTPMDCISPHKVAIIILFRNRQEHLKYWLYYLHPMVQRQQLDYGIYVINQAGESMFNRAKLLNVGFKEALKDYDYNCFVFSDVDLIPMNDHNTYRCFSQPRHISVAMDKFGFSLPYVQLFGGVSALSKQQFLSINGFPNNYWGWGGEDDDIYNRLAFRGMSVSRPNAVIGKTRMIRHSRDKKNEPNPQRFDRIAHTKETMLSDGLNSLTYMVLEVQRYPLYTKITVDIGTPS
Description: (§1) A solution of 20 μg (modified) IgG was incubated for 1 hour at 37° C. with Fabricator™ (commercially available from Genovis, Lund, Sweden) (1.25 U/μL) in phosphate-buffered saline (PBS) pH 6.6 in a total volume of 10 μL. Fabricator™-digested samples were washed trice with milliQ using an Amicon Ultra-0.5, Ultracel-10 Membrane (Millipore) resulting in a final sample volume of approximately 40 μL. The Fc/2 fragment was analyzed by electrospray ionization time-of-flight (ESI-TOF) on a JEOL AccuTOF. Deconvoluted spectra were obtained using Magtran software.
(§2) A set of Gal-T 1 mutants encoding residues 74-402 of bovine Gal-T 1 were transiently expressed in CHO K1 cells by Evitria (Zurich, Switzerland) which include the Gal-T1 single mutants Y289L (represented by SEQ ID NO: 26), Y289F (represented by SEQ ID NO: 27), Y289M (represented by SEQ ID NO: 28), Y289V (represented by SEQ ID NO: 29), Y289A (represented by SEQ ID NO: 30), and Y289G (represented by SEQ ID NO: 31), and the Gal-T1 double mutants Y289L,C342T (represented by SEQ ID NO: 32), and Y289M,C342T (represented by SEQ ID NO: 33). The mutants were purified using a cation exchange column (Source 15S HR16/10 column, GE Healthcare) as described above. Purified proteins were analyzed by SDS-PAGE. […]

Gal-T1(Y289A) = target: T2, Gal-T1(Y289A) (Bos taurus, UniProt P08037, I205M/L206V/P187L/V158I/Y289A); test: Glycosyltransfer to trimmed trastuzumab with Gal-T1(Y289A) expressed in CHO; conditions: trimmed trastuzumab 10 mg/mL; UDP derivative 5 mM; enzyme 0.5 mg/mL; pH 8.0, 30° C. overnight
T2 construct: host or cells: CHO K1
T2 sequence (P08037 74-402 V158I/P187L/I205M/L206V/Y289A): T1 sequence (P08037 74-402 V158I/P187L/I205M/L206V/Y289L/C342T) with L216A, T269C
Excerpt: A set of Gal-T 1 mutants encoding residues 74-402 of bovine Gal-T 1 were transiently expressed in CHO K1 cells by Evitria (Zurich, Switzerland) which include the Gal-T1 single mutants Y289L (represented by SEQ ID NO: 26), Y289F (represented by SEQ ID NO: 27), Y289M (represented by SEQ ID NO: 28), Y289V (represented by SEQ ID NO: 29), Y289A (represented by SEQ ID NO: 30), and Y289G (represented by SEQ ID NO: 31), and the Gal-T1 double mutants Y289L,C342T (represented by SEQ ID NO: 32), and Y289M,C342T (represented by SEQ ID NO: 33). The mutants were purified using a cation exchange column (Source 15S HR16/10 column, GE Healthcare) as described above. Purified proteins were analyzed by SDS-PAGE.
Trimmed trastuzumab (10 mg/mL, […] obtained by Endo S treatment of trastuzumab, was incubated with the 4-azido-3,5-difluorobenzoyl derivative of UDP-galactosamine (23, 5 mM) and one of the Gal-T1 single mutants Y289L, Y289M, Y289A or Y289G (expressed in CHO as described above) (0.5 mg/mL) in 10 mM MnCl2 and 25 mM Tris-HCl pH 8.0 at 30° C. overnight. Mass spectral analysis of the reduced sample indicated a partial conversion of the core GlcNac(Fuc)-substituted trastuzumab heavy chain (49504 Da) into product 30 (49818 to 49825 Da, 20 to 50% of total heavy chain depending on the Gal-T1 mutant used), resulting from transfer of 23 to core GlcNAc(Fuc)-substituted trastuzumab heavy chain. […]

Gal-T1(Y289M,C342T) = target: T3, Gal-T1(Y289M,C342T) (Bos taurus, UniProt P08037, C342T/Y289M); test: Glycosyltransfer to trimmed trastuzumab with Gal-T1(Y289M,C342T) expressed in CHO; conditions: trimmed trastuzumab 10 mg/mL; UDP derivative 5 mM; enzyme 1.0 mg/mL; pH 8.0, 30° C. overnight
T3 construct: host or cells: CHO K1
T3 sequence (P08037 74-402 V158I/P187L/I205M/L206V/Y289M/C342T): T1 sequence (P08037 74-402 V158I/P187L/I205M/L206V/Y289L/C342T) with L216M
Description: as §1, §2

[N-]=[N+]=Nc1c(F)cc(C(=O)N[C@H]2[C@@H](OP(=O)(O)OP(=O)(O)OC[C@H]3O[C@@H](n4ccc(=O)[nH]c4=O)[C@H](O)[C@@H]3O)O[C@H](CO)[C@H](O)[C@@H]2O)cc1F [Compound 23, 4-azido-3,5-difluorobenzoyl Derivative of UDP-GalNH2]
conversion of core GlcNAc(Fuc)-substituted trastuzumab into product (Gal-T1(Y289L,C342T)): complete conversion
observed conversion (Gal-T1(Y289A)): approximately 20%
conversion of core GlcNAc(Fuc)-substituted trastuzumab into product (Gal-T1(Y289M,C342T)): complete conversion

Reference: patent US20170009266A1, “PROCESS FOR THE ATTACHMENT OF A GALNAC MOIETY COMPRISING A (HETERO)ARYL GROUP TO A GLCNAC MOIETY, AND PRODUCT OBTAINED THEREBY” (SYNAFFIX B.V., priority 2014, published 2017)
